From patent publication US11554171B2, “Compounds and methods for the targeted degradation of bromodomain-containing proteins” (Arvinas Operations, Inc., priority 2015, dated 2023)

Tested on: c-myc in 22RV-1 cells
Assay: Human c-myc ELISA assay
Format: cell-based
Conditions: Homo sapiens; for Emax: 22Rv1, 18 h, read-out: Degradation of BRD4: Maximum inhibition (%) c-Myc ELISA in 22RV1 cells; for DC50: 22Rv1, read-out: Degradation of BRD4: DC50 (uM) c-Myc ELISA in 22RV1 cells
Protocol: 22RV-1 cells are seeded at 30,000 cells/well at a volume of 75 μL/well in RPMI+10% FBS media in 96-well plates and grown overnight at 37 C. Cells are dosed with compounds at 4× concentration diluted in 0.4% DMSO; compounds are serially diluted 1:3 for 8-point dose curve. 25 ul of compounds is added to cells for a final concentration starting at 300 nM-0.3 nM or 1 uM-1 nM in 0.1% DMSO and incubated for 18 hrs. Media is aspirated, cells washed 1× with PBS and aspirated. Cells are lysed in 50 ul RIPA buffer (50 mM Tris pH8, 150 mM NaCl, 1% Tx-100, 0.1% SDS, 0.5% sodium deoxycholate) supplemented with protease and phosphatase inhibitors. Plates are incubated on ice for 15 minutes then centrifuged at 4 C for 10 min at 4000 rpm. Add 50 ul of cleared lysate from 96-well assay plate into 96-well c-myc ELISA plate (Novex, Life Technologies Catalog #KH02041). Reconstitute c-myc standard with standard diluent buffer; standard curve range is 333 pg/ml-0 pg/ml, diluted 1:2 for 8-point dose curve. The rest of the assay was performed following the protocol from the c-myc ELISA kit. Data is analyzed and plotted using GraphPad Prism software. Compounds described in this application were assayed and c-myc suppression potency is listed in the following Table (A: DC50<10 nM; B: DC50 10-100 nM; C: DC50: 100-1000 nM; D: DC50>1000 nM)

| SMILES | Emax [%] | DC50 [µM] |
| --- | --- | --- |
| Cc1ncsc1-c1ccc(CNC(=O)[C@@H]2C[C@@H](O)CN2C(=O)[C@@H](NC(=O)COCCOCCOCCCOCCOCCNC(=O)C[C@@H]2N=C(c3ccc(Cl)cc3)c3c(sc(C)c3C)-n3c(C)nnc32)C(C)(C)C)cc1 [Example 8] | 95.9 | 0.1 to 1 |
| Cc1ncsc1-c1ccc(CNC(=O)[C@@H]2C[C@@H](O)CN2C(=O)[C@H](c2cc(OCCN3CCC(NC(=O)C[C@@H]4N=C(c5ccc(Cl)cc5)c5c(sc(C)c5C)-n5c(C)nnc54)CC3)no2)C(C)C)cc1 [Example 315] | 11.4 | > 1 |
| Cc1ncsc1-c1ccc(CNC(=O)[C@@H]2C[C@@H](O)CN2C(=O)[C@@H](c2cc(OCCN3CCC(NC(=O)C[C@@H]4N=C(c5ccc(Cl)cc5)c5c(sc(C)c5C)-n5c(C)nnc54)CC3)no2)C(C)C)cc1 [Example 314] | 87 | < 0.01 |
| Cc1ncsc1-c1ccc([C@H](C)NC(=O)[C@@H]2C[C@@H](O)CN2C(=O)[C@@H](NC(=O)CN2CCC(N3CCCN(C(=O)C[C@@H]4N=C(c5ccc(Cl)cc5)c5c(sc(C)c5C)-n5c(C)nnc54)CC3)CC2)C(C)(C)C)cc1 [Example 333] | 88 | 0.01 to 0.1 |
| CC1=NN=C2C1c1sc(C)c(C)c1C(c1ccc(Cl)cc1)=N[C@H]2CC(=O)NCCOCCOCCC(=O)N[C@H](C(=O)N1C[C@H](O)CC1C(=O)N[C@@H](C)c1ccc(-c2scnc2C)cc1)C(C)(C)C (some centres unmarked) [Example 136] | 96 | 0.01 to 0.1 |
| Cc1ncsc1-c1ccc(CNC(=O)[C@@H]2C[C@@H](O)CN2C(=O)[C@@H](NC(=O)COCCOCCOCCNC(=O)C[C@@H]2N=C(c3ccc(Cl)cc3)c3c(sc(C)c3C)-n3c(C)nnc32)C(C)(C)C)cc1 [Example 42, (2S,4R)-1-[(2S)-2-(2-{2-[2-(2-{2-[(9S)-7-(4-chlorophenyl)-4,5,13-trimethyl-3-thia-1,8,11,12-tetraazatricyclo[8.3.0.0^2,^6]trideca-2(6),4,7,10,12-pentaen-9-yl]acetamido}ethoxy)ethoxy]ethoxy}acetamido)-3,3-dimethylbutanoyl]-4-hydroxy-N-{[4-(4-methyl-1,3-thiazol-5-yl)phenyl]methyl}pyrrolidine-2-carboxamide] | 98.6 | 0.01 to 0.1 |
| Cc1ncsc1-c1ccc(CNC(=O)[C@@H]2C[C@@H](O)CN2C(=O)[C@@H](NC(=O)Cc2ccc3cc(CCNC(=O)C[C@@H]4N=C(c5ccc(Cl)cc5)c5c(sc(C)c5C)-n5c(C)nnc54)oc3c2)C(C)(C)C)cc1 [Example 97] | 100 | < 0.01 |
| Cc1ncsc1-c1ccc(CNC(=O)[C@@H]2C[C@@H](O)CN2C(=O)[C@@H](NC(=O)COCCC(=O)N2CC[C@H](NC(=O)C[C@@H]3N=C(c4ccc(Cl)cc4)c4c(sc(C)c4C)-n4c(C)nnc43)C2)C(C)(C)C)cc1 [Example 88] | 85.9 | 0.1 to 1 |
| Cc1ncsc1-c1ccc(CNC(=O)[C@@H]2C[C@@H](O)CN2C(=O)[C@@H](NC(=O)COc2ccccc2O[C@H]2C[C@@H](NC(=O)C[C@@H]3N=C(c4ccc(Cl)cc4)c4c(sc(C)c4C)-n4c(C)nnc43)C2)C(C)(C)C)cc1 [Example 190] | 91 | 0.01 to 0.1 |
| Cc1ncsc1-c1ccc(CNC(=O)[C@@H]2C[C@@H](O)CN2C(=O)[C@@H](NC(=O)COCCC[S+]([O-])CCNC(=O)C[C@@H]2N=C(c3ccc(Cl)cc3)c3c(sc(C)c3C)-n3c(C)nnc32)C(C)(C)C)cc1 (some centres unmarked) [Example 112] | 26.8 | > 1 |
| CC(=O)N[C@H](C(=O)N1C[C@H](O)C[C@H]1C(=O)NCc1ccc(-c2scnc2C)cc1OCCOCCOc1ccc(C2=NC(CC(=O)Nc3ccccc3)c3nnc(C)n3-c3sc(C)c(C)c32)cc1)C(C)(C)C (some centres unmarked) [Example 149] | 57.3 | 0.1 to 1 |
| Cc1ncsc1-c1ccc([C@@H](CO)NC(=O)[C@@H]2C[C@@H](O)CN2C(=O)[C@@H](NC(=O)CN2CCC(O[C@H]3C[C@H](NC(=O)C[C@@H]4N=C(c5ccc(Cl)cc5)c5c(sc(C)c5C)-n5c(C)nnc54)C3)CC2)C(C)(C)C)cc1 [Example 352, (2S,4R)-1-[(2S)-3,3-dimethyl-2-(2-{4-[(1,3-trans)-3-{2-[(9S)-7-(4-chlorophenyl)-4,5,13-trimethyl-3-thia-1,8,11,12-tetraazatricyclo[8.3.0.0^2,^6]trideca-2(6),4,7,10,12-pentaen-9-yl]acetamido}cyclobutoxy]piperidin-1-yl}acetamido)butanoyl]-4-hydroxy-N-[(1S)-2-hydroxy-1-[4-(4-methyl-1,3-thiazol-5-yl)phenyl]ethyl]pyrrolidine-2-carboxamide] | < 20 | > 1 |
| Cc1ncsc1-c1ccc(CNC(=O)[C@@H]2C[C@@H](O)CN2C(=O)[C@@H](NC(=O)COCCn2ccc(-c3ccc([C@@H](C)NC(=O)C[C@@H]4N=C(c5ccc(Cl)cc5)c5c(sc(C)c5C)-n5c(C)nnc54)cc3)cc2=O)C(C)(C)C)cc1 [Example 35] | 37 | > 1 |
| Cc1ncsc1-c1ccc(CNC(=O)[C@@H]2C[C@@H](O)CN2C(=O)[C@@H](NC(=O)c2cn3ccc(OCCCNC(=O)C[C@@H]4N=C(c5ccc(Cl)cc5)c5c(sc(C)c5C)-n5c(C)nnc54)cc3n2)C(C)(C)C)cc1 [Example 99] | 67 | 0.1 to 1 |
| Cc1ncsc1-c1ccc([C@H](C)NC(=O)[C@@H]2C[C@@H](O)CN2C(=O)[C@@H](NC(=O)COC[C@@H](O)CN2CCN(C(=O)C[C@@H]3N=C(c4ccc(Cl)cc4)c4c(sc(C)c4C)-n4c(C)nnc43)CC2)C(C)(C)C)cc1 [Example 329] | < 5 | > 1 |
| Cc1ncsc1-c1ccc([C@H](C)NC(=O)[C@@H]2C[C@@H](O)CN2C(=O)[C@@H](NC(=O)COCCC(=O)N2CCN(c3ccc([C@H](C)NC(=O)C[C@@H]4N=C(c5ccc(Cl)cc5)c5c(sc(C)c5C)-n5c(C)nnc54)cc3)CC2)C(C)(C)C)cc1 [Example 48, (2S,4R)-1-[(2S)-2-{2-[3-(4-{4-[(1S)-1-{2-[(9S)-7-(4-chlorophenyl)-4,5,13-trimethyl-3-thia-1,8,11,12-tetraazatricyclo[8.3.0.0^2,^6]trideca-2(6),4,7,10,12-pentaen-9-yl]acetamido}ethyl]phenyl}piperazin-1-yl)-3-oxopropoxy]acetamido}-3,3-dimethylbutanoyl]-4-hydroxy-N-[(1S)-1-[4-(4-methyl-1,3-thiazol-5-yl)phenyl]ethyl]pyrrolidine-2-carboxamide] | 98 | 0.01 to 0.1 |
| Cc1ncsc1-c1ccc([C@H](C)NC(=O)[C@@H]2C[C@@H](O)CN2C(=O)[C@@H](NC(=O)[C@@H]2CC[C@H](COCCCNC(=O)C[C@@H]3N=C(c4ccc(Cl)cc4)c4c(sc(C)c4C)-n4c(C)nnc43)O2)C(C)(C)C)cc1 [Example 186] | 94.5 | 0.01 to 0.1 |
| Cc1ncsc1-c1ccc(CNC(=O)[C@@H]2C[C@@H](O)CN2C(=O)[C@@H](NC(=O)COCCCOCCNC(=O)CC2N=C(c3ccc(Cl)cc3)c3c(sc(C)c3C)-n3c(C)nnc32)C(C)(C)C)cc1 (some centres unmarked) [Example 105] | 97 | 0.01 to 0.1 |
| Cc1ncsc1-c1ccc([C@H](C)NC(=O)[C@@H]2C[C@@H](O)CN2C(=O)[C@@H](NC(=O)Cc2cccc(O[C@H]3C[C@H](NC(=O)C[C@@H]4N=C(c5ccc(Cl)cc5)c5c(sc(C)c5C)-n5c(C)nnc54)C3)c2)C(C)(C)C)cc1 [Example 194] | 92.4 | < 0.01 |
